The text below walks through data of US8119630B2 (Arrow Therapeutics Limited, priority 2002, dated 2012).

The subject of one test is RSV. Briefly: XTT assay, RSV-infected Vero cells. The following applies: Table 1; Vero cells infected with RSV, m.o.i.≈0.2, 6 days at 33° C.; read-out: XTT IC50. Format: cell-based, Respiratory Syncytial Virus (RSV). How it is done:
Examples 1 to 74 and 83 to 124 were tested using the following protocol.
The inner 60 wells of 96 well tissue culture plates were seeded with Vero cells at 3×10^4 cells/well (1×10^4 cells/well for toxicity studies) in 100 or 150 μl of medium and incubated at 37° C. overnight or until nearing confluency. For primary screen, 25 μl compounds were added directly to 100 μl medium in single wells to duplicate plates. A third plate was prepared for simultaneous toxicity investigation.
For follow-up investigation, 70 μl of compound in duplicate wells were added directly to culture medium at 3.2× final concentration and ½ log serially diluted down columns of plate. A duplicate plate was prepared for simultaneous toxicity investigation.
Cells were infected with 25 μl RSV to give m.o.i.≈0.2. Some 100 μl of sterile distilled water were added to the outer wells of the plate and incubated at 33° C. for 6 days. Some 0.25 μl/ml PMS were added to stock XTT solution, final conc. […]. Then 25 μl warmed XTT/PMS solution were added to each well and incubated for 5 hours at 37° C. Plates were shaken (DynaTech Vari-Shaker) vigorously for 10 mins and allowed to cool for 15 mins before sealing. Absorbance at 450 nm was measured and data analysed using Microsoft Excel software.
Maximum OD450nm reading (uninfected, untreated control cells) corresponded to 100% inhibition. Minimum OD450nm readings (infected control cells) corresponded to 0% inhibition. Log 10 concentration was plotted against OD450nm and IC50 (Table 1) values were calculated from either reading 50% value from graph or using regression analysis.
(In general: Tetrazolium dyes change colour on reduction, which living cells bring about.)
What is called IC50 is the concentration that inhibits the measured activity by half. For `COc1ccccc1NC(=O)NC1N=C(c2ccccc2)c2ccccc2NC1=O` (centres unmarked) [Example 68, (2-Methoxy-phenyl)-3-(2-oxo-5-phenyl-2,3-dihydro-1H-benzo[e][1,4]diazepin-3-yl)-urea], the IC50 is 1 µM.

On to `COc1ccccc1C(=O)NC1N=C(c2ccccc2)c2ccccc2NC1=O` (centres unmarked) [Example 11, 2-Methoxy N-(2-oxo-5-phenyl-2,3-dihydro-1H-benzo[e][1,4]diazepin-3-yl)-benzamide], for which the IC50 was found to be 0.5 µM.

With `CCCCS(=O)(=O)NC1N=C(c2ccccc2)c2ccccc2NC1=O` (centres unmarked) [Example 37, Butane-1-sulfonic acid-(2-oxo-5-phenyl-2,3-dihydro-H-benzo[e][1,4]diazepin-3-yl)-amide], the IC50 was determined as 15 µM.

Staying with this test, now noted: human respiratory syncytial virus, Vero, 144 h, read-out: XTT IC50 (uM), Table 1; Vero cells infected with RSV, m.o.i.≈0.2, 6 days at 33° C.
Take `O=C(NC1N=C(c2ccccc2)c2ccccc2NC1=O)c1ccc2c(c1)CCO2` (centres unmarked) [Example 29, 2,3-Dihydro-benzofuran-5-carboxylic acid (2-oxo-5-phenyl-2,3-dihydro-1H-benzo[e][1,4]diazepin-3-yl)-amide]: the concentration for half-maximal inhibition (IC50) is 2 µM. With `CN1CCN(C(=O)NC2N=C(c3ccccc3)c3ccccc3NC2=O)CC1` (centres unmarked) [Example 20, 4-Methyl-piperazine-1-carboxylic acid-(2-oxo-5-phenyl-2,3-dihydro-1H-benzo[e][1,4]diazepin-3-yl)-amide], the IC50 was 25 µM. Take `O=C1Nc2ccccc2C(c2ccccc2)=NC1NCc1ccc([N+](=O)[O-])cc1` (centres unmarked) [Example 44, 3-(4-Nitro-benzylamino)-5-phenyl-1,3-dihydro-benzo[e][1,4]diazepin-2-one]: the IC50 is 10 µM.

With `O=C(NC1N=C(c2ccccc2)c2ccccc2NC1=O)c1ccc(Cl)c(Cl)c1` (centres unmarked) [Example 21, 3,4-Dichloro-N-(2-oxo-5-phenyl-2,3-dihydro-1H-benzo[e][1,4]diazepin-3-yl)-benzamide], the half-maximal inhibitory concentration (IC50) stood at 6 µM. On the same count and under the same terms, the result for `Cc1ccc(NC(=O)NC2N=C(c3ccccc3)c3ccccc3NC2=O)cc1` (centres unmarked) [Example 72, 1-(2-oxo-5-phenyl-2,3-dihydro-1H-benzo[e][1,4]diazepin-3-yl)-3-p-tolyl-urea] reads 1.5 µM. As to `O=C(NC1N=C(c2ccccc2)c2cc(Cl)ccc2NC1=O)c1ccco1` (centres unmarked) [Example 54, Furan-2-carboxylic acid (7-chloro-2-oxo-5-phenyl-2,3-dihydro-1H-benzo[e][1,4]diazepin-3-yl)-amide], the IC50 worked out at 1.5 µM. Take `CC(C)C(=O)NC1N=C(c2ccccc2)c2ccccc2NC1=O` (centres unmarked) [Example 5, N-(2-Oxo-5-phenyl-2,3-dihydro-1H-benzo[e][1,4]diazepin-3-yl)-isobutyramide]: the IC50 worked out at 2.5 µM.

Turning to `CCCC(=O)NC1N=C(c2ccccc2)c2ccccc2NC1=O` (centres unmarked) [Example 4, N-(2-Oxo-5-phenyl-2,3-dihydro-1H-benzo[e][1,4]diazepin-3-yl)-butyramide], the concentration for half-maximal inhibition (IC50) was 5 µM. Consider `O=C(Nc1ccc(F)cc1)NC1N=C(c2ccccc2)c2ccccc2NC1=O` (centres unmarked) [Example 74, 1-(4-Fluoro-phenyl)-3-(2-oxo-5-phenyl-2,3-dihydro-1H-benzo[e][1,4]diazepin-3-yl)-urea], for which the IC50 stood at 1.5 µM. For `COc1cccc(CNC2N=C(c3ccccc3)c3ccccc3NC2=O)c1` (centres unmarked) [Example 46, 3-(3-Methoxy-benzylamino)-5-phenyl-1,3-dihydro-benzo[e][1,4]diazepin-2-one], the IC50 was determined as 30 µM. For `O=C(NC1N=C(c2ccccc2)c2ccccc2NC1=O)c1ccccc1C(F)(F)F` (centres unmarked) [Example 22, N-(2-oxo-5-phenyl-2,3-dihydro-1H-benzo[e][1,4]diazepin-3-yl)-2-trifluoromethyl-benzamide], the half-inhibitory concentration (IC50) stood at 4 µM. Turning to `O=C(NC1N=C(c2ccccc2)c2ccccc2NC1=O)c1ccno1` (centres unmarked) [Example 30, Isoxazole-5-carboxylic acid (2-oxo-5-phenyl-2,3-dihydro-1H-benzo[e][1,4]diazepin-3-yl)-amide], the 50% inhibitory concentration (IC50) was found to be 3 µM. As to `O=C1Nc2ccccc2C(c2ccccc2)=NC1NS(=O)(=O)c1cccc(Br)c1` (centres unmarked) [Example 39, 3-Bromo-N-(2-oxo-5-phenyl-2,3-dihydro-1H-benzo[e][1,4]diazepin-3-yl)-benzenesulfonamide], the IC50 stood at 10 µM.

Turning to `O=C(NC1N=C(c2ccccc2)c2ccccc2NC1=O)c1ccncc1` (centres unmarked) [Example 33, N-(2-Oxo-5-phenyl-2,3-dihydro-1H-benzo[e][1,4]diazepin-3-yl)-isonicotinamide], the IC50 came to 2.5 µM.

As to `O=C(Nc1ccccc1F)N[C@H]1N=C(c2ccccc2)c2ccccc2NC1=O` [Example 73b, (S)-1-(2-Fluoro-phenyl)-3-(2-oxo-5-phenyl-2,3-dihydro-1H-benzo[e][1,4]diazepin-3-yl)-urea], the 50% inhibitory concentration (IC50) worked out at 0.7 µM. In the case of `COc1ccccc1CC(=O)NC1N=C(c2ccccc2)c2ccccc2NC1=O` (centres unmarked) [Example 60, 2-(2-Methoxy-phenyl)-N-(2-oxo-5-phenyl-2,3-dihydro-1H-benzo[e][1,4]diazepin-3-yl)-acetamide], the IC50 was found to be 5 µM.

With `O=C(NC1N=C(c2ccccc2)c2ccccc2NC1=O)c1ccco1` (centres unmarked) [Example 15, Furan-2-carboxylic acid (2-oxo-5-phenyl-2,3-dihydro-1H-benzo[e][1,4]diazepin-3-yl)-amide], the IC50 turned out to be 1 µM. As for `O=C1Nc2ccccc2C(c2ccccc2)=NC1NCc1cccc([N+](=O)[O-])c1` (centres unmarked) [Example 43, 3-(3-Nitro-benzylamino)-5-phenyl-1,3-dihydro-benzo[e][1,4]diazepin-2-one], the IC50 worked out at 30 µM. In the case of `O=C(NC1N=C(c2ccccc2)c2ccccc2NC1=O)c1ccsc1` (centres unmarked) [Example 32, Thiophen-3-carboxylic acid (2-oxo-5-phenyl-2,3-dihydro-1H-benzo[e][1,4]diazepin-3-yl)-amide], the IC50 was determined as 2 µM.

Turning to `Cc1ccccc1C(=O)NC1N=C(c2ccccc2)c2ccccc2NC1=O` (centres unmarked) [Example 24, 2-Methyl-N-(2-oxo-5-phenyl-2,3-dihydro-1H-benzo[e][1,4]diazepin-3-yl)-benzamide], the concentration for half-maximal inhibition (IC50) came to 3 µM. Turning to `O=C1Nc2ccccc2C(c2ccccc2)=NC1NCc1ccc(C(F)(F)F)cc1` (centres unmarked) [Example 49, 5-Phenyl-3-(4-trifluoromethyl-benzylamino)-1,3-dihydro-benzo[e][1,4]diazepin-2-one], the IC50 was found to be 50 µM. Turning to `COc1ccc(C(=O)NC2N=C(c3ccccc3)c3cc(Cl)ccc3NC2=O)cc1` (centres unmarked) [Example 58, N-(7-Chloro-2-oxo-5-phenyl-2,3-dihydro-1H-benzo[e][1,4]diazepin-3-yl)-4-methoxy-benzamide], the IC50 amounted to 1.2 µM. Take `O=C1Nc2ccccc2C(c2ccccc2)=NC1NCc1ccco1` (centres unmarked) [Example 50, 3-[(Furan-2-ylmethyl)-amino]-5-phenyl-1,3-dihydro-benzo[e][1,4]diazepin-2-one]: the IC50 was determined as 50 µM.

Consider `O=C1Nc2ccccc2C(c2ccccc2)=NC1NCc1ccccc1C(F)(F)F` (centres unmarked) [Example 47, 5-Phenyl-3-(2-trifluoromethyl-benzylamino) 1,3-dihydro-benzo[e][1,4]diazepin-2-one], for which the half-inhibitory concentration (IC50) stood at 30 µM.

Regarding `O=C(NC1N=C(c2ccccc2)c2ccccc2NC1=O)C1CCCC1` (centres unmarked) [Example 7, Cyclopentanecarboxylic acid (2-oxo-5-phenyl-2,3-dihydro-1H-benzo[e][1,4]diazepin-3-yl)-amide], the concentration for half-maximal inhibition (IC50) is 2 µM. Same read-out and setting: the result for `O=C(NC1N=C(c2ccccc2)c2cc(Cl)ccc2NC1=O)c1cccs1` (centres unmarked) [Example 55, Thiophene-2-carboxylic acid (7-chloro-2-oxo-5-phenyl-2,3-dihydro-1H-benzo[e][1,4]diazepin-3-yl)-amide] reads 3 µM. With `O=C(Nc1ccccc1F)NC1N=C(c2ccccc2)c2ccccc2NC1=O` (centres unmarked) [Example 73a, 1-(2-Fluoro-phenyl)-3-(2-oxo-5-phenyl-2,3-dihydro-1H-benzo[e][1,4]diazepin-3-yl)-urea], the IC50 was 1 µM. `CS(=O)(=O)NC1N=C(c2ccccc2)c2ccccc2NC1=O` (centres unmarked) [Example 35, N-(2-Oxo-5-phenyl-2,3-dihydro-1H-benzo[e][1,4]diazepin-3-yl)methanesulfonamide]: the 50% inhibitory concentration (IC50) was determined as 6 µM. Regarding `CC(C)(C)C(=O)NC1N=C(c2ccccc2)c2ccccc2NC1=O` (centres unmarked) [Example 6, 2,2-Dimethyl-N-(2-Oxo-5-phenyl-2,3-dihydro-1H-benzo[e][1,4]diazepin-3-yl)-propionamide], the IC50 amounted to 6 µM. `CCC(=O)NC1N=C(c2ccccc2)c2ccccc2NC1=O` (centres unmarked) [Example 3, N-(2-Oxo-5-phenyl-2,3-dihydro-1H-benzo[e][1,4]diazepin-3-yl)-propionamide]: the half-maximal inhibitory concentration (IC50) was 2.5 µM. Turning to `O=C(NC1N=C(c2ccccc2)c2ccccc2NC1=O)c1ccccc1[N+](=O)[O-]` (centres unmarked) [Example 26, 2-Nitro-N-(2-oxo-5-phenyl-2,3-dihydro-1H-benzo[e][1,4]diazepin-3-yl)-benzamide], the IC50 came out at 2 µM.

In the case of `COc1ccccc1CNC1N=C(c2ccccc2)c2ccccc2NC1=O` (centres unmarked) [Example 45, 3-(2-Methoxy-benzylamino)-5-phenyl-1,3-dihydro-benzo[e][1,4]diazepin-2-one], the 50% inhibitory concentration (IC50) was 20 µM.
